Measurements from patent publication US20240180989A1, “LIGUSTRUM LUCIDUM EXTRACT USEFUL FOR THE TREATMENT AND/OR CARE OF THE SKIN” (Lubrizol Advanced Materials, Inc., priority 2021, published 2024).

Legend:
[1] = tested on: arginase; assay: Arginase activity reduction in human epidermal keratinocytes (colorimetric Arginase Activity kit); format: cell-based; settings: 1 mM, donor
Experimental: Human epidermal keratinocytes (HEK) of donor (Tebu Bio), donor (Promocell) and donor (Promocell) are seeded in 6-well plates at a density of 3×10^5 cells/well in keratinocyte growth medium supplemented with Mix C39016-CaCl2 solution (Promocell). […] The donor's cells treated with S-(2-Boronoethyl)-L-cysteine hydrochloride (BEC, Sigma) 1 mM are used as positive control of arginase inhibition, and the donor's, donor's and 26-year-old donor's cells treated with medium alone are used as basal control of arginase activity at different ages. Treatment is continued for 24 hours. After 24 hours, cells are lysed and are analyzed by a colorimetric Arginase Activity kit (Abcam) according to manufacturer's instructions. […] Absorbance is measured by using a microplate reader (Clariostar, BMG) set to 570 nm in a kinetic mode for 30 minutes. […] Arginase activity is calculated in the exponential phase of the kinetic for each sample with the following equation: AOD═(OD2−ODBG2)−(OD1−ODBG1); where: OD1 and OD2 is the sample reading at time T1 and T2 respectively, ODBG1 and ODBG2 is the sample background reading at time T1 and T2 respectively.
Total protein amount of each sample is determined using a Pierce BCA protein assay kit (Thermo fisher) according to the manufacturer's protocol. […] Afterwards, color change is measured with an absorbance microplate reader (Clariostar, BMG) at 562 nm. […]

[2] = tested on: peroxynitrite production in Human epidermal keratinocytes (HEK); assay: Quantification of peroxynitrite production in human epidermal keratinocytes; format: cell-based; settings: 1 hour, per cell
Experimental: Human epidermal keratinocytes (HEK) are seeded in 96-well plates at a density of 3×10^4 cells/well in keratinocyte growth medium supplemented with Mix C39016-CaCl2 solution (Promocell). After 24 hours incubation, medium is replaced with fresh culture medium with scalar dilutions of the subcritical water extract at 160° C. of Example 2. Treatment is continued for 24 hours and cells treated with medium alone are used as basal control. After 24 hours incubation, peroxynitrite production is measured by a fluorescence approach with Peroxynitrite assay kit (Abcam) following the manufacturer's instructions. In brief, cells are treated with 10 μl/well sensor green working solution during 1 hour in the medium. Cells treated with SIN-1 (Sigma) 11 mM or 5.76 mM during 1 hour in combination with sensor green solution are used as a positive control of peroxynitrite production. SIN-1 (Sigma) is a nitric oxide donor. After 1-hour incubation, fluorescence is measured with an […] microplate reader (Clariostar, BMG) at excitation 490 nm and emission 530 nm. […] Cell nuclei number is determined with a confocal microscopy Operetta (PerkinElmer). Peroxynitrite fluorescence intensity is normalized to cell number for each condition.
The results in Table 8 are expressed as a percentage of peroxynitrite per cell normalized by basal condition.

Row | Structure (SMILES) | Arginase activity MEAN subtracting basal condition and normalizing respect basal condition of cells [1] | Arginase activity MEAN respect basal condition of cells ([1]; 24 h) | Peroxynitrite production MEAN respect basal condition ([2]; 5.76 mM) | Peroxynitrite production MEAN respect basal condition ([2]; 11 mM)
1 | Cl.N[C@@H](CSCCB(O)O)C(=O)O [BEC, S-(2-Boronoethyl)-L-cysteine hydrochloride] | −10.58% | 70.10% |  | 
2 | [NH-]c1c[n+](N2CCOCC2)no1 [SIN-1] |  |  | 2379.00% | 1654.00%
